Among the data in PubChem BioAssay (NCI) are TGI values, retold here.

Among the test systems are 786-0 renal; A498 renal; ACHN renal; EKVX NSCLC; HCT-116 colon; HCT-15 colon; K-562 leukemia; MDA-MB-231 breast; MDA-N; MOLT-4 leukemia; NCI-H460 lung; OVCAR-4 ovarian; OVCAR-5 ovarian; RPMI-8226 leukemia; SK-MEL-2 melanoma; SK-MEL-28 melanoma; SW-620 colon; UACC-62 melanoma; UO-31 renal; SF-539 CNS.
What all share (assay): NCI-60 cell line screen, 48 h

Molecules are shown by their SMILES.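 In this assay, cells in 96-well plates receive the compound at five concentrations for 48 hours. Endpoints are linearly interpolated between the surrounding concentrations. At the TGI there is no net growth.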 Some results are limits rather than exact numbers.

As for `O=[N+]([O-])c1ccc(N=Nc2c(O)ccc3ccccc23)c([N+](=O)[O-])c1`, the TGI in the assay with 786-0 renal, with A498 renal, in the assay on ACHN renal, in the assay with EKVX NSCLC, with HCT-116 colon and in the assay with HCT-15 colon was > 100 µM in each case. Also, the TGI in the assay with K-562 leukemia is > 71.4 µM; with MDA-MB-231 breast, > 100 µM; in the assay on MDA-N, > 100 µM; in the assay with MOLT-4 leukemia, > 100 µM; in the assay on NCI-H460 lung it was > 100 µM; in the assay on OVCAR-4 ovarian it was > 100 µM. In addition, the TGI in the assay on OVCAR-5 ovarian, in the assay on RPMI-8226 leukemia, in the assay with SK-MEL-2 melanoma, with SK-MEL-28 melanoma, in the assay with SW-620 colon and with UACC-62 melanoma was > 100 µM throughout. Further, the TGI with UO-31 renal was > 100 µM.
Consider `CC(C)(Oc1ccccc1)C(=O)Sc1c(-c2ccccc2)c(=O)n(-c2ccccc2)c(=S)n1-c1ccccc1`, for which the TGI with 786-0 renal, with A498 renal, in the assay with ACHN renal, with EKVX NSCLC, with HCT-116 colon and with HCT-15 colon was > 100 µM in each case. The TGI in the assay on K-562 leukemia is > 100 µM; with MDA-MB-231 breast, 73.8 µM; in the assay with MDA-N, > 100 µM; with MOLT-4 leukemia it was > 100 µM; with NCI-H460 lung it was 67.3 µM; with OVCAR-4 ovarian it was > 100 µM. The TGI with OVCAR-5 ovarian is > 100 µM; in the assay on SF-539 CNS, 45.4 µM; in the assay with SK-MEL-28 melanoma, > 100 µM; in the assay on SW-620 colon, > 100 µM; in the assay on UACC-62 melanoma it was > 100 µM; in the assay with UO-31 renal it was 82.8 µM.
Take `CCN(CC)CCC(=O)c1ccc(C)cc1`: the TGI in the assay with 786-0 renal came to 34.3 µM; with A498 renal it was 67.2 µM; with ACHN renal it was 41 µM; in the assay with EKVX NSCLC, 86.8 µM; with HCT-116 colon it was 36.8 µM; with HCT-15 colon it was 33.6 µM. The TGI in the assay on K-562 leukemia is 52.3 µM; in the assay on MDA-MB-231 breast, 29 µM; with MDA-N, 51.6 µM; with MOLT-4 leukemia, 52.2 µM; in the assay on NCI-H460 lung it was > 100 µM; in the assay on OVCAR-4 ovarian, 50.1 µM. For the same compound, the TGI in the assay with OVCAR-5 ovarian was 31.4 µM; in the assay on SF-539 CNS, > 100 µM; with SK-MEL-28 melanoma, 29.9 µM; in the assay on SW-620 colon, 36.9 µM; with UACC-62 melanoma, > 100 µM; in the assay with UO-31 renal it was 42 µM.
For `COc1ccc2nccc(SCC(=O)O)c2c1`, the TGI in the assay on 786-0 renal, in the assay on A498 renal, with ACHN renal, in the assay with EKVX NSCLC, with HCT-116 colon and in the assay with HCT-15 colon was > 100 µM throughout. In addition, the TGI in the assay on K-562 leukemia, with MDA-MB-231 breast, in the assay on MDA-N, in the assay with MOLT-4 leukemia, in the assay with NCI-H460 lung and with OVCAR-4 ovarian was > 100 µM throughout. Further, the TGI with OVCAR-5 ovarian, in the assay with RPMI-8226 leukemia, with SK-MEL-2 melanoma, in the assay on SK-MEL-28 melanoma, with SW-620 colon and in the assay with UACC-62 melanoma was > 100 µM throughout. For the same compound, in the assay on UO-31 renal, the TGI was > 100 µM.
Turning to `O=c1c2cc(-c3ccccc3)sc2nc2n1N=C(c1ccc(Cl)cc1)CS2`, the TGI with 786-0 renal, with A498 renal, in the assay with ACHN renal, in the assay on EKVX NSCLC, in the assay on HCT-116 colon and with HCT-15 colon was > 100 µM in each case. The TGI in the assay with K-562 leukemia, in the assay with MDA-MB-231 breast, in the assay with MDA-N, in the assay with MOLT-4 leukemia, in the assay on NCI-H460 lung and in the assay on OVCAR-4 ovarian was > 100 µM each time. Moreover, the TGI in the assay with OVCAR-5 ovarian, in the assay with RPMI-8226 leukemia, in the assay on SF-539 CNS, in the assay on SK-MEL-28 melanoma, with SW-620 colon and in the assay with UACC-62 melanoma was > 100 µM in each case. Also, in the assay with UO-31 renal, the TGI is > 100 µM.
`Cc1c(CCN2CCOCC2)c(N2CCOCC2)n2c(nc3ccccc32)c1C#N`: the TGI in the assay on 786-0 renal, in the assay on A498 renal, with ACHN renal, in the assay on EKVX NSCLC, in the assay with HCT-116 colon and with HCT-15 colon was > 10 µM each time. For the same compound, the TGI in the assay with K-562 leukemia, with MDA-MB-231 breast, in the assay on MDA-N, with MOLT-4 leukemia, in the assay on NCI-H460 lung and in the assay with OVCAR-4 ovarian was > 10 µM each time. The TGI in the assay with OVCAR-5 ovarian, in the assay on RPMI-8226 leukemia, in the assay on SF-539 CNS, with SK-MEL-28 melanoma, in the assay on SW-620 colon and in the assay on UACC-62 melanoma was > 10 µM in each case. Moreover, the TGI in the assay on UO-31 renal is > 10 µM.
In the case of `CO[C@@H]1C[C@H]2[C@@H]3CC[C@H]([C@@H](C)CO)[C@@]3(C)CC[C@@H]2[C@@]2(C)CC[C@H]3C[C@]312`, the TGI is > 100 µM in the assay with 786-0 renal; > 100 µM in the assay on A498 renal; 66.4 µM with ACHN renal; > 100 µM in the assay with EKVX NSCLC; > 100 µM with HCT-116 colon; > 100 µM in the assay on HCT-15 colon. Also, the TGI in the assay with K-562 leukemia is 60.5 µM; with MDA-MB-231 breast it was 80.7 µM; in the assay with MDA-N it was > 100 µM; in the assay on MOLT-4 leukemia, > 100 µM; with NCI-H460 lung, 43.1 µM; in the assay with OVCAR-4 ovarian it was > 100 µM. In addition, the TGI was > 100 µM in the assay on OVCAR-5 ovarian; 89.6 µM in the assay on RPMI-8226 leukemia; > 100 µM in the assay on SF-539 CNS; 83.5 µM in the assay with SK-MEL-28 melanoma; > 100 µM in the assay with SW-620 colon; 98.8 µM in the assay with UO-31 renal.
Turning to `COC(=O)c1ccc(NC(=O)O/N=C(\Cl)C(C)C)cc1`, the TGI with 786-0 renal amounted to 4.35 µM; with A498 renal, 37.6 µM; in the assay on ACHN renal, 3.16 µM; in the assay on EKVX NSCLC, 10.9 µM; in the assay on HCT-116 colon, 17.2 µM; with HCT-15 colon, 3.49 µM. The TGI with MDA-MB-231 breast was 15.6 µM; with MDA-N it was 22.8 µM; in the assay with MOLT-4 leukemia it was 6 µM; in the assay with NCI-H460 lung, 41.2 µM; with OVCAR-4 ovarian, 32 µM; in the assay with OVCAR-5 ovarian, 32.8 µM. In addition, the TGI in the assay on RPMI-8226 leukemia was found to be 4.47 µM; with SK-MEL-2 melanoma, 31.5 µM; in the assay on SK-MEL-28 melanoma it was 10.1 µM; in the assay on SW-620 colon, 3.77 µM; in the assay with UACC-62 melanoma, 27 µM; with UO-31 renal, 28.7 µM.
Turning to `O=C1c2ccccc2C(=O)N1CC1S(=O)(=O)OCCOS1(=O)=O`, the TGI in the assay with 786-0 renal, in the assay on A498 renal, with ACHN renal, in the assay on EKVX NSCLC, with HCT-116 colon and with HCT-15 colon was > 100 µM in each case. Besides, the TGI with K-562 leukemia, in the assay on MDA-MB-231 breast, with MDA-N, in the assay with MOLT-4 leukemia, with NCI-H460 lung and in the assay on OVCAR-4 ovarian was > 100 µM in each case. In addition, the TGI in the assay with OVCAR-5 ovarian, in the assay with RPMI-8226 leukemia, with SF-539 CNS, in the assay on SK-MEL-28 melanoma, in the assay with SW-620 colon and in the assay with UACC-62 melanoma was > 100 µM throughout. Besides, in the assay with UO-31 renal, the TGI is > 100 µM.
Turning to `Cc1ccc(N2C(=O)C=C(C3=C(O)C(=O)N(c4ccc(C)cc4)C3=O)C2=O)cc1`, the TGI in the assay with 786-0 renal, in the assay with A498 renal, in the assay with ACHN renal, with EKVX NSCLC, in the assay with HCT-116 colon and with HCT-15 colon was > 100 µM in each case. Also, the TGI in the assay on K-562 leukemia, in the assay on MDA-MB-231 breast, in the assay with MDA-N, with MOLT-4 leukemia, with NCI-H460 lung and in the assay on OVCAR-4 ovarian was > 100 µM each time. Further, the TGI in the assay on OVCAR-5 ovarian, with RPMI-8226 leukemia, in the assay with SK-MEL-28 melanoma, in the assay with SW-620 colon, with UACC-62 melanoma and with UO-31 renal was > 100 µM each time.
As to `Nc1nc(Cl)c(/C=N\O)c(NCC2(CO)CCC2)n1`, the TGI in the assay with 786-0 renal, in the assay on A498 renal, with ACHN renal, in the assay with EKVX NSCLC, in the assay with HCT-116 colon and in the assay on HCT-15 colon was > 100 µM in each case. The TGI in the assay on K-562 leukemia was > 100 µM; in the assay on MDA-MB-231 breast, > 100 µM; in the assay with MDA-N, > 100 µM; with MOLT-4 leukemia it was 81.2 µM; in the assay with NCI-H460 lung, > 100 µM; with OVCAR-4 ovarian, > 100 µM. Also, the TGI in the assay with OVCAR-5 ovarian, in the assay on RPMI-8226 leukemia, with SF-539 CNS, in the assay with SK-MEL-28 melanoma, in the assay with SW-620 colon and in the assay with UO-31 renal was > 100 µM throughout.
For the compound `CCCCCCCCCCCCN1[C@H]2CCC[C@H]2C(O)[C@@H]2CCC[C@@H]21` (stereo not given in full), the TGI in the assay with 786-0 renal, in the assay with A498 renal, in the assay with ACHN renal, in the assay on HCT-116 colon, in the assay on HCT-15 colon and in the assay with K-562 leukemia was > 100 µM throughout. In addition, the TGI with MDA-MB-231 breast, with MDA-N, in the assay with MOLT-4 leukemia, with NCI-H460 lung, in the assay with OVCAR-4 ovarian and in the assay on OVCAR-5 ovarian was > 100 µM each time. In addition, the TGI in the assay on RPMI-8226 leukemia, in the assay with SK-MEL-2 melanoma, in the assay on SK-MEL-28 melanoma, in the assay on SW-620 colon and in the assay on UACC-62 melanoma was > 100 µM in each case.
